Blank lines part the entries; values can stand above or below the compound they belong to.
Key:
[1] = tested on: plasma hormone levels; experiment: Pharmacodynamic determination in monkeys: plasma aldosterone and cortisol after ACTH stimulation; assay type: in vivo, cynomolgus monkeys; conditions: P.O.
Method: Cynomolgus monkeys were used as test animals to evaluate the pharmacodynamics of multiple compounds of the present disclosure on plasma hormone levels following gavage administration (P.O.) at various doses such as 0.1 mpk (and others, e.g., 0.03 mpk, 0.1 mpk, and 0.3 mpk).
Male cynomolgus monkeys, Suzhou Xishan Zhongke Laboratory Animal Co., Ltd. Animal production license number: SCXK (Su) 2023-0001, animal use license number: SYXK (Su) 2020-0017.
Male cynomolgus monkeys were performed gavage administration (P.O.) at doses set as: 0 mpk (vehicle group, i.e., Veh group), 0.03 mpk, 0.1 mpk, and 0.3 mpk. In each group, 15 µg/kg ACTH was injected intramuscularly 1 hour after dosing. Continuous venous blood samples were collected from each group at 1 hour before administration and at multiple time points after administration. Blood samples were collected, and plasma aldosterone and its precursors, as well as plasma corticosterone and its precursors, at multiple time points were analyzed using LC/MS methods.
Venous blood samples were collected at 1-2 hours before gavage administration and at multiple time points after intramuscular injection of ACTH (adrenocorticotropic hormone). The samples were placed in EDTA-K2 tubes, centrifuged at 4 °C, 2600 g for 10 minutes to separate plasma, which was then stored at -80 °C.
• HPLC: Waters ACQUITY UPLC I-Class PLUS; • Mass spectrometry conditions: Triple Quad™ 7500 (Serial No. FA224362212) mass spectrometer; • Chromatographic column: phenomenex kinetex 2.6µm C8 100A 50 × 4.60 mm; • Mobile phase: mobile phase A was 0.5 mM ammonium fluoride solution containing 0.1% formic acid; mobile phase B was MeOH.
The data in Figs. 1, 2, 3, 4, and 5 are analyzed based on PD changes at 30 minutes after ACTH stimulation. The percentage of PD relative to the control group (Veh group) at 30 minutes after ACTH stimulation serves as the main basis for pharmacodynamic evaluation, calculated according to the following formula: [formula] where PD refers to aldosterone or cortisol. Table 8 Pharmacodynamic Evaluation of Example Compound C44 in Monkeys

[2] = in vivo; conditions: rat, in vivo, po, 10 mg/kg
Method: Mice and rats were used as test animals to study the pharmacokinetic behavior of the compounds of the present disclosure in plasma following gavage administration (P.O.). Plasma samples were collected at specific time points, compound concentrations in plasma were detected by LC-MS/MS, and pharmacokinetic parameters were calculated to evaluate the pharmacokinetics.
• Mice, CD-1, male, Zhejiang Vital River Laboratory Animal Technology Co., Ltd. • Rats, Sprague-Dawley, male, Zhejiang Vital River Laboratory Animal Technology Co., Ltd., Shanghai Jihui Experimental Animal Breeding Co., Ltd.
After administration to mice and rats, venous blood samples of 0.03 mL and 0.2 mL, respectively, were collected at 0.0833 (IV), 0.25, 0.5, 1, 2, 4, 8, and 24 hours and placed in EDTA-K2 test tubes. Plasma was separated by centrifugation at 4 °C, 4000 g for 5 minutes and stored at -80 °C.
• 1) 50 µL of plasma sample was precipitated by adding 200 µL of acetonitrile, vortex mixed, and centrifuged for 15 minutes. • 2) The processed supernatant was diluted with water and analyzed by LC/MS/MS to determine the concentration of the test compound.
Pharmacokinetic parameters were calculated using WinNonlin 8.3. […] Cmax represents the maximum plasma concentration, T1/2 represents the terminal elimination half-life, MRTInf represents the mean residence time, and AUC represents the area under the plasma concentration-time curve.

[3] = Pharmacokinetic determination in mice after gavage administration (P.O.); assay type: in vivo; conditions: male, CD-1, mouse, po, 10 mg/kg, plasma
[4] = 0.03 mpk, 30min after ACTH stimulation, plasma
[5] = 0.1 mpk, 30min after ACTH stimulation, plasma
[6] = 0.3 mpk, 30min after ACTH stimulation, plasma

- AUC(0-t) at 24 h [2]: 190 µM·h
- Cmax [2]: 22.7 µM
- MRT inf [2]: 5.3 h
- half-life [2]: 3.47 h
Structure (SMILES): CCC(=O)N[C@@H]1CCOc2c(-c3ccc4c(c3)CCC(=O)N4C)cncc21 [Compound A02-P2]
- Cortisol ([1]; 0.03 mpk, 0h, plasma): 269.0 ng/mL
- Aldosterone ([1]; 0.03 mpk, 0h, plasma (Table 12)): 0.13 ng/mL
- Cortisol [1, 4]: 384.0 ng/mL
- Aldosterone ([1]; 0.03 mpk, 30min after ACTH stimulation, plasma (Table 12)): 0.27 ng/mL
- Cortisol ([1]; 0.1 mpk, 0h, plasma): 436.0 ng/mL
- Aldosterone ([1]; 0.1 mpk, 0h, plasma (Table 12)): 0.40 ng/mL
- Cortisol [1, 5]: 599.0 ng/mL
- Aldosterone ([1]; 0.1 mpk, 30min after ACTH stimulation, plasma (Table 12)): 0.20 ng/mL
- Aldosterone ([1]; 0.3 mpk (dose printed 03), 0h, plasma (Table 12)): 0.13 ng/mL
- Aldosterone ([1]; 0.3 mpk (dose printed 03), 30min after ACTH stimulation, plasma (Table 12)): 0.05 ng/mL
- Cortisol ([1]; 0.3 mpk, 0h, plasma): 283.0 ng/mL
- Cortisol [1, 6]: 387.0 ng/mL

- Cmax [3]: 9.07 µM
- AUC(0-t) ([3]; read-out: AUC0-24): 136 µM·h
Structure (SMILES): [2H]C([2H])([2H])OC(=O)N[C@@H]1CCOc2c(-c3cc(F)c4c(ccc(=O)n4C)c3)cncc21 [Compound A50]
- Aldosterone ([1]; 0.03 mpk, 0h, plasma): 0.12 ng/mL
- Cortisol ([1]; 0.03 mpk, 0h, plasma): 358.3 ng/mL
- Aldosterone [1, 4]: 0.22 ng/mL
- Cortisol [1, 4]: 430.0 ng/mL
- Aldosterone ([1]; 0.1 mpk, 0h, plasma): 0.49 ng/mL
- Cortisol ([1]; 0.1 mpk, 0h, plasma): 282.0 ng/mL
- Aldosterone [1, 5]: 0.12 ng/mL
- Cortisol [1, 5]: 386.0 ng/mL
- Aldosterone ([1]; 0.3 mpk, 0h, plasma): 0.12 ng/mL
- Cortisol ([1]; 0.3 mpk, 0h, plasma): 304.7 ng/mL
- Aldosterone [1, 6]: 0.06 ng/mL
- Cortisol [1, 6]: 369.7 ng/mL
